Measured values taken from ChEMBL document CHEMBL1123556, “Synthesis of antimicrobial agents. 1. Syntheses and antibacterial activities of 7-(azole substituted)quinolones” (J Med Chem, 1987).
≈ marks a conversion by molar mass, not a printed value.

Experiments:
[1] = Concentrations in serum after 120 minutes at 50 mg / kg oral administration; assay type: ADME, cell-free
[2] = Concentrations in serum after 240 minutes at 50 mg / kg oral administration; assay type: ADME
[3] = Concentrations in serum after 30 minutes at 50 mg / kg oral administration; assay type: ADME, cell-free
[4] = Concentrations in serum after 60 minutes at 50 mg / kg oral administration; assay type: ADME, cell-free
[5] = Total serum concentrations at 0 to 4 hours interval was determined by 50 mg / kg oral administration; assay type: ADME, cell-free
[6] = test system: Mus musculus; assay: In vivo antibacterial activity against Escherichia coli (KC-14) was determined for the compound administered perorally; Value ranges from 3.3-5.0; assay type: functional; conditions: po
[7] = In vivo acute toxicity against Escherichia coli (KC-14) was determined for the compound administered intravenously; assay type: organism-based; conditions: mouse, iv
[8] = In vivo acute toxicity against Escherichia coli (KC-14) was determined for the compound administered orally; assay type: organism-based; conditions: mouse, po
[9] = test system: Bacillus subtilis; assay: In vitro antibacterial activity against Bacillus subtilis ATCC 6633; assay type: functional
[10] = test system: Klebsiella pneumoniae; assay: In vitro antibacterial activity against Klebsiella pneumoniae PCI-602; assay type: functional
[11] = test system: Proteus vulgaris; assay: In vitro antibacterial activity against Proteus vulgaris HX-19; assay type: functional
[12] = test system: Pseudomonas aeruginosa; assay: In vitro antibacterial activity against Pseudomonas aeruginosa IFO 3445; assay type: functional
[13] = test system: Salmonella paratyphi; assay: In vitro antibacterial activity against Salmonella paratyphi 1015; assay type: functional, Salmonella enterica subsp. enterica serovar Paratyphi A; conditions: Salmonella enterica
[14] = test system: Staphylococcus epidermidis; assay: In vitro antibacterial activity against Staphylococcus epidermidis IAM 1576; assay type: functional
[15] = test system: Escherichia coli; assay: In vitro antibacterial activity against Escherichia coli NIHJ JC-2; assay type: functional
[16] = test system: Staphylococcus aureus; assay: In vitro antibacterial activity against Staphylococcus aureus FDA 209P JC-1; assay type: functional
[17] = test system: Klebsiella pneumoniae; assay: microbe, parasite or virus in culture; assay type: functional
[18] = test system: Mus musculus; assay: In vivo antibacterial activity against Escherichia coli (KC-14) was determined for the compound administered perorally; Value ranges from […]-[…]; assay type: functional; conditions: po
[19] = test system: Salmonella paratyphi; assay: microbe, parasite or virus in culture; assay type: functional, Salmonella enterica subsp. enterica serovar Paratyphi A; conditions: Salmonella enterica
[20] = test system: Staphylococcus epidermidis; assay: microbe, parasite or virus in culture; assay type: functional
[21] = In vivo acute toxicity against Escherichia coli (KC-14) was determined for the compound administered perorally; assay type: organism-based; conditions: mouse, po
[22] = test system: Mus musculus; assay: In vivo antibacterial activity against Escherichia coli (KC-14) was determined for the compound administered perorally; assay type: functional; conditions: po

Work on `CCn1cc(C(=O)O)c(=O)c2cc(F)c(-n3ccnc3)c(F)c21` yielded a concentration at 2 h [1] of 7600 ng/mL, a concentration at 4 h [2] of 1700 ng/mL and a concentration at 0.5 h [3] of 44800 ng/mL. For the same compound, the concentration at 1 h [4] was 39300 ng/mL, the Concentration in serum [5] was 64900 ng/mL and the ED50 [6] was 4 mg/kg. It also gave an LD50 [7] of 773 mg/kg and an LD50 [8] of 4000 mg/kg.
Work on `CCn1cc(C(=O)O)c(=O)c2cc(F)c(-n3cnc(Br)c3)c(F)c21` yielded an MIC [9] of 0.2 µg/mL (≈ 0.502 µM), an MIC [10] of 0.2 µg/mL (≈ 0.502 µM) and an MIC [11] of 0.2 µg/mL (≈ 0.502 µM). It also gave an MIC [12] of 25 µg/mL (≈ 62.8 µM), an MIC [13] of 0.2 µg/mL (≈ 0.502 µM) and an MIC [14] of 6.25 µg/mL (≈ 15.7 µM). For the same compound, the MIC [15] was 1.56 µg/mL (≈ 3.92 µM) and the MIC [16] was 0.78 µg/mL (≈ 1.96 µM).
With `CCn1cc(C(=O)O)c(=O)c2cc(F)c(-n3cccc3)c(F)c21` the concentration at 2 h [1] was 3230 ng/mL, the concentration at 4 h [2] was 1650 ng/mL and the concentration at 0.5 h [3] was 10700 ng/mL. It also gave a concentration at 1 h [4] of 7070 ng/mL, a Concentration in serum [5] of 17200 ng/mL and an MIC [9] of 0.05 µg/mL (≈ 0.157 µM). The MIC [17] was 0.2 µg/mL (≈ 0.628 µM), the ED50 [18] was 11.7 mg/kg and the MIC [11] was 0.1 µg/mL (≈ 0.314 µM). The MIC [12] was 12.5 µg/mL (≈ 39.3 µM), the MIC [19] was 0.2 µg/mL (≈ 0.628 µM) and the MIC [20] was 1.56 µg/mL (≈ 4.9 µM). For the same compound, the MIC [15] was 3.13 µg/mL (≈ 9.83 µM) and the MIC [16] was 0.39 µg/mL (≈ 1.23 µM).
`CCn1cc(C(=O)O)c(=O)c2cc(F)c(N3CCNCC3)c(F)c21` showed an LD50 [7] of 193 mg/kg and an LD50 [21] of 1070 mg/kg.
For `CCn1cc(C(=O)O)c(=O)c2cc(F)c(-n3cnc([N+](=O)[O-])c3)c(F)c21`, the MIC [9] was 0.39 µg/mL (≈ 1.07 µM), the MIC [17] was 0.39 µg/mL (≈ 1.07 µM) and the MIC [11] was 3.13 µg/mL (≈ 8.59 µM). For the same compound, the MIC [12] was 25 µg/mL (≈ 68.6 µM), the MIC [19] was 1.56 µg/mL (≈ 4.28 µM) and the MIC [20] was 6.25 µg/mL (≈ 17.2 µM). It also gave an MIC [15] of 6.25 µg/mL (≈ 17.2 µM) and an MIC [16] of 1.56 µg/mL (≈ 4.28 µM).
`CCn1cc(C(=O)O)c(=O)c2cc(F)c(-n3cnc4ccccc43)c(F)c21` showed an MIC [9] of 0.05 µg/mL (≈ 0.135 µM), an MIC [17] of 0.39 µg/mL (≈ 1.06 µM) and an MIC [11] of 0.78 µg/mL (≈ 2.11 µM). It also gave an MIC [12] of 12.5 µg/mL (≈ 33.8 µM), an MIC [19] of 0.78 µg/mL (≈ 2.11 µM) and an MIC [20] of 1.56 µg/mL (≈ 4.22 µM). The MIC [15] was 1.56 µg/mL (≈ 4.22 µM) and the MIC [16] was 0.2 µg/mL (≈ 0.542 µM).
`CCn1cc(C(=O)O)c(=O)c2cc(F)c(-n3cccc3)cc21` [IRLOXACIN] showed a concentration at 2 h [1] of 840 ng/mL, a concentration at 4 h [2] of 550 ng/mL and a concentration at 0.5 h [3] of 5530 ng/mL. It also gave a concentration at 1 h [4] of 2200 ng/mL, a Concentration in serum [5] of 6800 ng/mL and an MIC [9] of 0.05 µg/mL (≈ 0.167 µM). The MIC [17] was 0.2 µg/mL (≈ 0.666 µM), the ED50 [22] was 50 mg/kg and the MIC [11] was 0.1 µg/mL (≈ 0.333 µM). For the same compound, the MIC [12] was 12.5 µg/mL (≈ 41.6 µM), the MIC [19] was 0.1 µg/mL (≈ 0.333 µM) and the MIC [20] was 1.56 µg/mL (≈ 5.19 µM). The MIC [15] was 3.13 µg/mL (≈ 10.4 µM) and the MIC [16] was 0.39 µg/mL (≈ 1.3 µM).
`CCn1cc(C(=O)O)c(=O)c2cc(F)c(-n3ccnc3)cc21` showed a concentration at 2 h [1] of 1100 ng/mL, a concentration at 0.5 h [3] of 4200 ng/mL and a concentration at 1 h [4] of 2300 ng/mL. The Concentration in serum [5] was 5500 ng/mL, the MIC [9] was 0.78 µg/mL (≈ 2.59 µM) and the MIC [17] was 0.2 µg/mL (≈ 0.664 µM). For the same compound, the ED50 [22] was 50 mg/kg, the MIC [11] was 0.2 µg/mL (≈ 0.664 µM) and the MIC [12] was 12.5 µg/mL (≈ 41.5 µM). For the same compound, the MIC [19] was 0.1 µg/mL (≈ 0.332 µM), the MIC [20] was 25 µg/mL (≈ 83 µM) and the MIC [15] was 1.56 µg/mL (≈ 5.18 µM). For the same compound, the MIC [16] was 6.25 µg/mL (≈ 20.7 µM).
Work on `CCn1cc(C(=O)O)c(=O)c2cc(F)c(-n3cccn3)cc21` yielded an MIC [9] of 0.78 µg/mL (≈ 2.59 µM), an MIC [17] of 0.78 µg/mL (≈ 2.59 µM) and an MIC [11] of 0.39 µg/mL (≈ 1.29 µM). The MIC [12] was 25 µg/mL (≈ 83 µM), the MIC [19] was 0.39 µg/mL (≈ 1.29 µM) and the MIC [20] was 25 µg/mL (≈ 83 µM). The MIC [15] was 12.5 µg/mL (≈ 41.5 µM) and the MIC [16] was 6.25 µg/mL (≈ 20.7 µM).
With `CCn1cc(C(=O)O)c(=O)c2cc(F)c(-n3ccnc3)c(SC)c21` the MIC [9] was 0.39 µg/mL (≈ 1.12 µM), the MIC [17] was 0.39 µg/mL (≈ 1.12 µM) and the MIC [11] was 0.39 µg/mL (≈ 1.12 µM). The MIC [12] was 25 µg/mL (≈ 72 µM), the MIC [19] was 0.39 µg/mL (≈ 1.12 µM) and the MIC [20] was 12.5 µg/mL (≈ 36 µM). The MIC [15] was 6.25 µg/mL (≈ 18 µM) and the MIC [16] was 3.13 µg/mL (≈ 9.01 µM).
`CCn1cc(C(=O)O)c(=O)c2cc(F)c(-n3cnc(/C=N/O)c3)c(F)c21` gave an MIC [9] of 0.78 µg/mL (≈ 2.15 µM), an MIC [17] of 0.39 µg/mL (≈ 1.08 µM) and an MIC [11] of 0.78 µg/mL (≈ 2.15 µM). It also gave an MIC [12] of 25 µg/mL (≈ 69 µM), an MIC [19] of 0.39 µg/mL (≈ 1.08 µM) and an MIC [20] of 25 µg/mL (≈ 69 µM). It also gave an MIC [15] of 6.25 µg/mL (≈ 17.3 µM) and an MIC [16] of 3.13 µg/mL (≈ 8.64 µM).
